The source of these data is US7273866B2, “2-aryl thiazole derivatives as KCNQ modulators” (Bristol-Myers Squibb Company, priority 2002, dated 2007).

Experiment [1] has as its system peripheral mononeuropathy nerve injury-induced tactile allodynia. In words: Chung model of neuropathic pain (Chung surgery and von Frey test). Format: in vivo, Sprague Dawley rats. The settings on record: 100 mg/kg, i.v.; von Frey thresholds over 90 min, rat. As to the method:
Chung model of neuropathic pain (Chung surgery and von Frey test). To test agents for activity against peripheral mononeuropathy nerve injury-induced tactile allodynia, male Sprague Dawley rats (wt. 120-160 g) were surgically prepared with unilateral tight ligation of spinal nerves L5 and L6 following the method of Kim and Chung (Kim S. H., Chung J. M. (1992) Pain, September; 50(3):355-63). After 3-4 weeks recovery, paw withdrawal to light touch was assessed as described by Chaplan et al. (Chaplan S. R., et al., (1994) J. Neurosci Methods, July; 53(1):55-63). […] After acclimation, baseline von Frey thresholds were assessed for the injured hindpaw at −15 min. […] Following drug administration, von Frey thresholds were measured at 15, 30, 60 and 90 min. Data were analyzed by a 2-way repeated measures analysis of variance followed by Dunnett's test (p<0.05). […]
Reversal of neuropathic pain behavior may be expressed as a percentage (0-100%) of the maximum possible effect, over and above the vehicle effects. […]
For example, a compound which immediately reversed neuropathic pain behavior to normal levels, such that animals only responded to the highest von Frey filament (15 g), and maintained normal levels through out the post-drug testing period (90 min) would be calculated as Δ% MPE=100%.

The subject of the next experiment is KCNQ channels. In words: Thallium flux assay for KCNQ channel openers. Format: cell-based. As to conditions: HEK-293 cells stably transfected with a KCNQ family member; for Min. conc. response: minimal active concentration: lowest concentration giving signal amplitude >= four standard deviations of negative controls; for EC50: thallium flux, 10 point concentration series. The essentials:
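HEK-293 lines stably expressing individual KCNQ members, loaded with BTC-AM in chloride-free buffer pH 7.3, compound added (1% DMSO final) before 7.5 mM Tl2SO4 stimulus; fluorescence read 60 s on FLIPR. Minimal active concentration at ≥4 SD above negative controls; EC50 from 10-point logistic fit.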

In general, EC50 refers to the concentration that produces a half-maximal response. A low value points to an effect from little substance.

Turning to `NCC1(CC(=O)O)CCCCC1` [Gabapentin, gabapentin, reference compound], the “AUC (Δ % MPE)” value in experiment [1] is recorded as 50 (100 mg/kg, i.v.) Δ % MPE.

In the experiment on KCNQ channels, `COc1ccc(-c2nc(C(F)(F)F)c(C(=O)NC(C)c3cccc(CN4CCCC4)c3)s2)cc1OC` (centres unmarked) [Example 36, 2-(3,4-dimethoxyphenyl)-4-(trifluoromethyl)-N-[1-[3-[(1-pyrrolidinyl)methyl]phenyl]ethyl]-5-thiazolecarboxamide] gave a Min. conc. response of 10 µM and an EC50 of 1 to 20 µM.

In the experiment on KCNQ channels, `CCN(Cc1cccnc1-c1nc(C(F)(F)F)c(C(=O)N[C@@H](C)c2cccc(-c3cccnc3)c2)s1)C(C)C` [Example 68, (S)-2-[3-[ethyl(2-propyl)aminomethyl]pyridin-2-yl]-4-(trifluoromethyl)-N-[1-[3-(3-pyridinyl)phenyl]ethyl]-5-thiazolecarboxamide] showed a Min. conc. response of 30 µM and an EC50 of 1 to 20 µM.

For `CCN(CC)Cc1ccccc1-c1nc(C(F)(F)F)c(C(=O)N[C@@H](C)c2cccc(OC)c2)s1` [Example 82], in the experiment on KCNQ channels, the Min. conc. response amounted to 0.3 µM and the EC50 was in the range of 0.05 to 1 µM.

In the experiment on KCNQ channels, `CCN(CC)Cc1cccnc1-c1nc(C(F)(F)F)c(C(=O)NC(C)c2cccc(OC(F)(F)F)c2)s1` (centres unmarked) [Example 61, 2-[3-(diethylaminomethyl)pyridin-2-yl]-4-(trifluoromethyl)-N-[1-[3-(trifluoromethoxy)phenyl]ethyl]-5-thiazolecarboxamide] showed a Min. conc. response of 30 µM and an EC50 of 0.05 to 1 µM.

For the molecule `CCN(Cc1ccncc1)Cc1cccnc1-c1nc(C(F)(F)F)c(C(=O)N[C@@H](C)c2cccc(N3CCOCC3)c2)s1` [Example 62], in the experiment on KCNQ channels, the Min. conc. response stood at 3 µM and the EC50 was 0.05 to 1 µM.

Molecule `COc1ccc(-c2nc(C(F)(F)F)c(C(=O)NC(C)c3ccc(OC)c(OC)c3)s2)cc1OC` (centres unmarked) [Example 90] showed a Min. conc. response in the experiment on KCNQ channels of 10 µM.

As to `CCN(Cc1ccncc1)Cc1ccccc1-c1nc(C(F)(F)F)c(C(=O)NC(C)c2cccc(-c3cccnc3)c2)s1` (centres unmarked) [Example 117], the Min. conc. response with KCNQ channels turned out to be 0.3 µM.

As to `COc1ccc(F)cc1-c1nc(C(F)(F)F)c(C(=O)NC(C)c2cccc(C(F)(F)F)c2)s1` (centres unmarked) [Example 43, 2-(5-fluoro-2-methoxyphenyl)-4-(trifluoromethyl)-N-[1-[3-(trifluoromethyl)phenyl]ethyl]-5-thiazolecarboxamide], in the experiment with KCNQ channels, the Min. conc. response came out at 3 µM and the concentration giving a half-maximal response (EC50) fell in the range of 0.05 to 1 µM.

Take `COc1ccc(-c2nc(C(F)(F)F)c(C(=O)NC(C)c3cccc(OC(F)(F)F)c3)s2)cc1` (centres unmarked) [Example 28, 2-(4-methoxyphenyl)-4-(trifluoromethyl)-N-[1-[3-(trifluoromethoxy)phenyl]ethyl]-5-thiazolecarboxamide]: in the experiment on KCNQ channels, the Min. conc. response worked out at 10 µM and the EC50 was 1 to 20 µM.
